According to US20110092544A1, “FUNGICIDAL PYRIDINES” (E.I. DU PONT DE nemours and company, priority 2008, published 2011):

Tests used:
Assay type in all cases: in vivo
Botrytis cinerea = test: Test F: tomato botrytis, preventive spray on tomato seedlings, visual disease rating
From the text: (§1) General protocol for preparing test suspensions for Tests A-H: The test compounds were first dissolved in acetone in an amount equal to 3% of the final volume and then suspended at the desired concentration (in ppm) in acetone and purified water (50/50 mix) containing 250 ppm of the surfactant Trem® 014 (polyhydric alcohol esters). The resulting test suspensions were then used in tests A-H. Spraying a 200 ppm test suspension to the point of run-off on the test plants was the equivalent of a rate of 500 g/ha.
The test suspension was sprayed to the point of run-off on tomato seedlings. The following day the seedlings were inoculated with a spore suspension of Botrytis cinerea (the causal agent of tomato botrytis) and incubated in saturated atmosphere at 20° C. for 48 h, and then moved to a growth chamber at 24° C. for 3 additional days, after which time disease ratings were visually made.
(§2) Results for Tests A-H are given in Table A. In the table, a rating of 100 indicates 100% disease control and a rating of 0 indicates no disease control (relative to the controls). A dash (-) indicates no test results. All results are for compounds tested at 200 ppm except where the compound number is followed by “*” which indicates the compound was tested at 40 ppm.

Septoria tritici = test: Test C: wheat leaf blotch, preventive spray on wheat seedlings, visual disease rating
From the text: as §1
The test suspension was sprayed to the point of run-off on wheat seedlings. The following day the seedlings were inoculated with a spore suspension of Septoria tritici (the causal agent of wheat leaf blotch) and incubated in a saturated atmosphere at 20° C. for 48 h, and moved to a growth chamber at 20° C. for 19 additional days, after which time disease ratings were visually made.
as §2

Alternaria solani = test: Test E: tomato early blight, preventive spray on tomato seedlings, visual disease rating
From the text: as §1
The test suspension was sprayed to the point of run-off on tomato seedlings. The following day the seedlings were inoculated with a spore suspension of Alternaria solani (the causal agent of tomato early blight) and incubated in a saturated atmosphere at 27° C. for 48 h, and then moved to a growth chamber at 20° C. for 5 days, after which time disease ratings were visually made.
as §2

Septoria nodorum = test: Test D: wheat glume blotch, preventive spray on wheat seedlings, visual disease rating
From the text: as §1
The test suspension was sprayed to the point of run-off on wheat seedlings. The following day the seedlings were inoculated with a spore suspension of Septoria nodorum (the causal agent of wheat glume blotch) and incubated in a saturated atmosphere at 20° C. for 48 h, and then moved to a growth chamber at 20° C. for 7 days, after which time disease ratings were visually made.
as §2

[1] = tested on: Erysiphe graminis f. sp. tritici; test: Test A: wheat powdery mildew, preventive spray on wheat seedlings, visual disease rating
From the text: as §1
The test suspension was sprayed to the point of run-off on wheat seedlings. The following day the seedlings were inoculated with a spore dust of Erysiphe graminis f. sp. tritici (the causal agent of wheat powdery mildew) and incubated in a growth chamber at 20° C. for 8 days, after which time disease ratings were visually made.
as §2

[2] = tested on: Puccinia recondite f. sp. tritici; test: Test B: wheat leaf rust, preventive spray on wheat seedlings, visual disease rating
From the text: as §1
The test suspension was sprayed to the point of run-off on wheat seedlings. The following day the seedlings were inoculated with a spore suspension of Puccinia recondite f. sp. tritici (the causal agent of wheat leaf rust) and incubated in a saturated atmosphere at 20° C. for 24 h, and then moved to a growth chamber at 20° C. for 7 days, after which time disease ratings were visually made.
as §2

[3] = 200 ppm, 100 = 100% disease control, 0 = no control
[4] = 40 ppm (compound number followed by *)

Row | SMILES | Test F rating (% disease control) (Botrytis cinerea; [3]) [%] | Test C rating (% disease control) (Septoria tritici; [3]) [%] | Test E rating (% disease control) (Alternaria solani; [3]) [%] | Test D rating (% disease control) (Septoria nodorum; [3]) [%] | Test A rating (% disease control) [1, 3] [%] | Test B rating (% disease control) [2, 3] [%] | Test F rating (% disease control) (Botrytis cinerea; [4]) [%] | Test C rating (% disease control) (Septoria tritici; [4]) [%] | Test E rating (% disease control) (Alternaria solani; [4]) [%] | Test D rating (% disease control) (Septoria nodorum; [4]) [%] | Test A rating (% disease control) [1, 4] [%] | Test B rating (% disease control) [2, 4] [%] | also measured
1 | CCOC(=O)c1cnc(C)c(-c2c(F)ccc(F)c2F)c1-c1cc(OC)cc(OC)c1 [Compound 66] | 95 | 98 | 99 | 0 | 99 | 98 | – | – | – | – | – | – | –
2 | COc1cc(OC)cc(-c2c(CO)cnc(C)c2-c2c(F)cc(F)cc2F)c1 [Compound 96, 4-(3,5-dimethoxyphenyl)-6-methyl-5-(2,4,6-trifluorophenyl)-3-pyridinemethanol] | – | – | – | – | – | – | – | – | – | – | – | – | pest or weed control at 200 ppm (Botrytis cinerea; Botrytis cinerea, 120 h, 200 ppm, 100 = 100% disease control, 0 = no control): 98%; pest or weed control at 200 ppm (Septoria tritici; Zymoseptoria tritici, 504 h, 200 ppm, 100 = 100% disease control, 0 = no control): 94%; pest or weed control at 200 ppm (Alternaria solani; Alternaria solani, 168 h, 200 ppm, 100 = 100% disease control, 0 = no control): 99%; pest or weed control at 200 ppm (Septoria nodorum; Parastagonospora nodorum, 216 h, 200 ppm, 100 = 100% disease control, 0 = no control): 0%; pest or weed control at 200 ppm ([1]; Blumeria graminis, 192 h, 200 ppm, 100 = 100% disease control, 0 = no control): 98%; pest or weed control at 200 ppm ([2]; 192 h, 200 ppm, 100 = 100% disease control, 0 = no control): 96%
3 | COc1cc(OC)cc(-c2c(C3CCCC3)cnc(C)c2-c2c(F)cccc2F)c1 [Compound 67] | – | – | – | – | – | – | 99 | 95 | 99 | 0 | 100 | 100 | –
4 | COc1ccc(-c2c(C)ncc(C(C)=O)c2-c2cc(OC)cc(OC)c2)cc1 [Compound 61] | 99 | 84 | 83 | 0 | 86 | 99 | – | – | – | – | – | – | –
5 | COc1cc(OC)cc(-c2c(-c3c(F)cccc3F)cnc(Cl)c2-c2c(F)cccc2F)c1 [Compound 76] | – | – | – | – | – | – | 0 | 0 | 0 | 0 | 0 | 28 | –
6 | COc1cc(OC)cc(-c2c(C(O)C(C)C)cnc(C)c2-c2c(F)cc(F)cc2F)c1 (centres unmarked) [Compound 103] | 99 | 95 | 100 | 98 | 100 | 100 | – | – | – | – | – | – | –
7 | COc1cc(OC)cc(-c2c(-c3ccc(F)cc3)cnc(C)c2-c2ccc(F)cc2)c1 [Compound 88] | – | – | – | – | – | – | 99 | 77 | 0 | 0 | 58 | 53 | –
8 | COc1cc(OC)cc(-c2c(-c3ccc(F)cc3)cnc(C)c2-c2ccc(F)cc2F)c1 [Compound 95] | 87 | 96 | 73 | 0 | 93 | 99 | – | – | – | – | – | – | –
9 | COc1cc(OC)c(Cl)c(-c2c(-c3ccccc3F)cnc(C)c2-c2c(F)cc(F)cc2F)c1Cl [Compound 136] | – | – | – | – | – | – | 48 | 40 | 0 | 0 | 0 | 74 | –
10 | C=C(C)c1cnc(CC)c(-c2ccccc2)c1-c1cc(OC)cc(OC)c1 [Compound 29] | – | – | – | – | – | – | 80 | 98 | 91 | 0 | 91 | 0 | –
11 | COc1cc(OC)cc(-c2c(C(C)C)cnc(C)c2-c2c(F)ccc(F)c2F)c1 [Compound 78] | – | – | – | – | – | – | – | 92 | 96 | 0 | 100 | 99 | –
